{"source": "patent US11807693B2", "about": "(priority 2014, dated 2023)", "key": {"human APJ receptor": {"molecular_target": "T1, human APJ receptor (Homo sapiens, UniProt P35414)", "T1 construct": "expressed in transfected cells", "T1 sequence (P35414 1-380)": "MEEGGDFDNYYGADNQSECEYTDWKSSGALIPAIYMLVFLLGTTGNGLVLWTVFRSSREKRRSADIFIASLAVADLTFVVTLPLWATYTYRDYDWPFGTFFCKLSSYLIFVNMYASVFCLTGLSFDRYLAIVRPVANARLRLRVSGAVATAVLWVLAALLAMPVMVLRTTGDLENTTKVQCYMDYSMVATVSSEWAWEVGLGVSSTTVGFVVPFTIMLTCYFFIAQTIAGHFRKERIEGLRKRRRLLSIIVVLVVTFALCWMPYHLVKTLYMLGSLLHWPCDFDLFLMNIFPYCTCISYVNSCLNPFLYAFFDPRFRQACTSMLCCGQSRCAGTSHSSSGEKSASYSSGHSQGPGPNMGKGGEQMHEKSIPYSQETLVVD", "assay": "[35S] GTPγS assay, human APJ receptor", "assay_type": "biochemical"}, "[1]": {"assay": "In vitro stability in rat plasma", "assay_type": "in vitro ADME", "method_in_brief": "(§1)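 High resolution LC-MS of the supernatant gave remaining peptide. Samples came from 37° C. incubations of 5 μM apelin peptide in rat plasma or liver or kidney homogenate over 4 hr, stopped with methanol plus internal standard.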"}, "[2]": {"assay": "In vitro stability in rat liver homogenate", "assay_type": "in vitro ADME", "conditions": "tissue homogenate", "method_in_brief": "as §1"}, "[3]": {"assay": "In vitro stability in rat kidney homogenate", "assay_type": "in vitro ADME", "conditions": "rat, tissue homogenate", "method_in_brief": "as §1"}, "rat APJ receptor": {"molecular_target": "T2, rat APJ receptor (Rattus norvegicus, UniProt Q9JHG3)", "T2 construct": "expressed in transfected cells", "T2 sequence (Q9JHG3 1-377)": "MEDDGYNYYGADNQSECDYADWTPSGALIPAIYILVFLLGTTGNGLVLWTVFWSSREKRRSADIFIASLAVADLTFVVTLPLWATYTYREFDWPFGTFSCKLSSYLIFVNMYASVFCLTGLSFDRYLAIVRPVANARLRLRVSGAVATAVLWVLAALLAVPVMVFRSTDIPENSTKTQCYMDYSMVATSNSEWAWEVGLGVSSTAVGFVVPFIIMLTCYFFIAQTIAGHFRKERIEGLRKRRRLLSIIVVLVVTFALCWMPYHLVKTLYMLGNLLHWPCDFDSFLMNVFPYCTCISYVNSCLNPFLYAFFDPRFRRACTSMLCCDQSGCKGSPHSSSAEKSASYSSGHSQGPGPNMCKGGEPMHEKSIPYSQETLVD", "assay": "[35S] GTPγS assay, rat APJ receptor", "assay_type": "biochemical", "experimental": "The membranes were incubated with modified peptides in the assay buffer. […] Bound [^35S] GTPγS was separated from free radiolabel by filtration. The filter bound radioactivity was determined by liquid scintillation counting."}, "[4]": {"conditions": "rat APJ receptor, read-out: EC50 Rat APJ Receptor"}}, "note": "Read-outs that look alike come from different tables or passages of the source. Starred links: 1 amine or outer side, 2 acyl side, 3 side chain; linkers in the order of their positions; H or OH if unused. Non-standard residues stand in square brackets, D forms with d. Residues, ends and D or L forms follow the SMILES beside them. *: point of attachment. dBip = N[C@H](Cc1ccc(-c2ccccc2)cc1)C(=O)O; Oic = O=C(O)[C@@H]1C[C@@H]2CCCC[C@@H]2N1; Phe(4-Cl) = N[C@@H](Cc1ccc(Cl)cc1)C(=O)O; dPhe(4-Cl) = N[C@H](Cc1ccc(Cl)cc1)C(=O)O; Phe(4-I) = N[C@@H](Cc1ccc(I)cc1)C(=O)O; γGlu = O=C(O)[C@H](CCC(=O)[*:2])N[*:1]; NMeR = CN[C@@H](CCCNC(=N)N)C(=O)O; Palmitoyl = CCCCCCCCCCCCCCCC(=O)*; Tridecanoyl = CCCCCCCCCCCCC(=O)*; hArg = N=C(N)NCCCC[C@H](N)C(=O)O; Cha = N[C@@H](CC1CCCCC1)C(=O)O; NMeL = CN[C@@H](CC(C)C)C(=O)O; αMeL = CC(C)C[C@](C)(N)C(=O)O; β3hP = O=C(O)C[C@@H]1CCCN1; Pip = O=C(O)[C@@H]1CCCCN1; Nle = CCCC[C@H](N)C(=O)O; Dap = NC[C@H](N)C(=O)O; AEEA = NCCOCCOCC(=O)O; Aib = CC(C)(N)C(=O)O; NPrGly = CCCNCC(=O)O; βAla = NCCC(=O)O"}
{"smiles": "CCCCCCCCCCCCC(=O)N[C@@H](CCC(=O)NCCOCCOCC(=O)NCCOCCOCC(=O)N[C@@H](CCC(N)=O)C(=O)N[C@@H](CCCNC(=N)N)C(=O)N1CCC[C@H]1C(=O)N(C)[C@@H](CCCNC(=N)N)C(=O)N[C@@](C)(CC(C)C)C(=O)N[C@@H](CO)C(=O)N[C@@H](Cc1c[nH]cn1)C(=O)N[C@@H](CCCCN)C(=O)NCC(=O)N1[C@H](C(=O)N[C@@H](CCCC)C(=O)N[C@@H](Cc2ccc(Cl)cc2)C(=O)O)C[C@@H]2CCCC[C@@H]21)C(=O)O", "note": "[compound 389] ({Tridecanoyl-γGlu-AEEA-AEEA}-QRP[NMeR][αMeL]SHKG[Oic][Nle][Phe(4-Cl)]-OH)", "values": [{"measurement": "EC50", "setting": "human APJ receptor; Table 16", "value": 0.196, "unit": "nM"}, {"measurement": "remaining at 4 h, 5 μM", "setting": "[1]", "value": "< 1", "unit": "%"}, {"measurement": "remaining at 4 h, 5 μM", "setting": "[2]", "value": "< 1", "unit": "%"}, {"measurement": "remaining at 4 h, 5 μM", "setting": "[3]", "value": 4, "unit": "%"}]}
{"smiles": "CCCCCCCCCCCCC(=O)N[C@@H](CCC(=O)NCCOCCOCC(=O)NCCOCCOCC(=O)N[C@@H](CCCC)C(=O)N[C@H](CCCNC(=N)N)C(=O)N[C@@H](CCC(N)=O)C(=O)N[C@@H](CCCCNC(=N)N)C(=O)N1CCC[C@H]1C(=O)N[C@H](CCCNC(=N)N)C(=O)N(C)[C@@H](CC(C)C)C(=O)N[C@@H](C)C(=O)N[C@@H](Cc1c[nH]cn1)C(=O)N[C@@H](CCCCN)C(=O)NCC(=O)N1[C@H](C(=O)N[C@@H](Cc2ccc(I)cc2)C(=O)N2CCC[C@H]2C(=O)N[C@H](Cc2ccc(-c3ccccc3)cc2)C(=O)O)C[C@@H]2CCCC[C@@H]21)C(=O)O", "note": "[compound 320] ({Tridecanoyl-γGlu-AEEA-AEEA}-[Nle][dR]Q[hArg]P[dR][NMeL]AHKG[Oic][Phe(4-I)]P[dBip]-OH)", "values": [{"measurement": "EC50", "setting": "human APJ receptor; human APJ receptor", "value": 17.8, "unit": "nM"}, {"measurement": "remaining at 4 h, 5 μM", "setting": "[1]", "value": "> 90", "unit": "%"}, {"measurement": "remaining at 4 h, 5 μM", "setting": "[2]", "value": 86.5, "unit": "%"}, {"measurement": "remaining at 4 h, 5 μM", "setting": "[3]", "value": 73.4, "unit": "%"}]}
{"smiles": "CCCCCCCCCCCCC(=O)N[C@@H](CCC(=O)NCCOCCOCC(=O)NCCOCCOCC(=O)N[C@@H](CCC(N)=O)C(=O)N[C@@H](CCCNC(=N)N)C(=O)N1CCC[C@H]1C(=O)N[C@@H](CCC(=O)O)C(=O)N[C@@H](CC(C)C)C(=O)N[C@@H](CO)C(=O)N[C@@H](Cc1c[nH]cn1)C(=O)N[C@@H](CCCCN)C(=O)NCC(=O)N1CCC[C@H]1C(=O)N[C@@H](CCCC)C(=O)N1CCC[C@H]1C(=O)N[C@@H](Cc1ccc(Cl)cc1)C(=O)O)C(=O)O", "note": "[compound 477] ({Tridecanoyl-γGlu-AEEA-AEEA}-QRPELSHKGP[Nle]P[Phe(4-Cl)]-OH)", "values": [{"measurement": "EC50", "setting": "human APJ receptor; Table 16", "value": 0.423, "unit": "nM"}, {"measurement": "remaining at 4 h, 5 μM", "setting": "[1]", "value": 64, "unit": "%"}, {"measurement": "remaining at 4 h, 5 μM", "setting": "[2]", "value": "< 1", "unit": "%"}, {"measurement": "remaining at 4 h, 5 μM", "setting": "[3]", "value": 2, "unit": "%"}]}
{"smiles": "CCCCCCCCCCCCCCCC(=O)N[C@@H](CCC(=O)NCCOCCOCC(=O)NCCOCCOCC(=O)N[C@H](CCC(N)=O)C(=O)N[C@@H](CCCNC(=N)N)C(=O)N1CCC[C@H]1C(=O)N(C)[C@@H](CCCNC(=N)N)C(=O)N[C@@](C)(CC(C)C)C(=O)N[C@@H](CO)C(=O)N[C@@H](CN)C(=O)N[C@@H](CCCCN)C(=O)NCC(=O)N1[C@H](C(=O)N[C@@H](CCCC)C(=O)N2CCC[C@H]2CC(=O)N[C@@H](Cc2ccc(Cl)cc2)C(=O)O)C[C@@H]2CCCC[C@@H]21)C(=O)O", "note": "[compound 630] ({Palmitoyl-γGlu-AEEA-AEEA}-[dQ]RP[NMeR][αMeL]S[Dap]KG[Oic][Nle][β3hP][Phe(4-Cl)]-OH)", "values": [{"measurement": "EC50", "setting": "human APJ receptor; human APJ receptor", "value": 0.203, "unit": "nM"}, {"measurement": "EC50", "setting": "rat APJ receptor; [4]", "value": 0.486, "unit": "nM"}]}
{"smiles": "CCCCCCCCCCCCC(=O)N[C@@H](CCC(=O)NCCOCCOCC(=O)NCCOCCOCC(=O)N[C@H](CCC(N)=O)C(=O)N[C@@H](CCCCNC(=N)N)C(=O)N1CCC[C@H]1C(=O)N(C)[C@@H](CCCNC(=N)N)C(=O)N[C@@H](CC1CCCCC1)C(=O)N[C@@H](CO)C(=O)N[C@@H](Cc1c[nH]cn1)C(=O)N[C@@H](CCCCN)C(=O)NCC(=O)N1[C@H](C(=O)N[C@@H](CCCC)C(=O)NCCC(=O)N[C@H](Cc2ccc(Cl)cc2)C(=O)O)C[C@@H]2CCCC[C@@H]21)C(=O)O", "note": "[compound 295] ({Tridecanoyl-γGlu-AEEA-AEEA}-[dQ][hArg]P[NMeR][Cha]SHKG[Oic][Nle][βAla][dPhe(4-Cl)]-OH)", "values": [{"measurement": "EC50", "setting": "human APJ receptor; Table 16", "value": 3.29, "unit": "nM"}, {"measurement": "EC50", "setting": "rat APJ receptor; Table 16, read-out: EC50 Rat APJ Receptor", "value": 10.4, "unit": "nM"}]}
{"smiles": "CCCCCCCCCCCCCCCC(=O)N[C@@H](CCC(=O)NCCOCCOCC(=O)NCCOCCOCC(=O)N[C@H](CCC(N)=O)C(=O)N[C@@H](CCCNC(=N)N)C(=O)N1CCC[C@H]1C(=O)N(C)[C@@H](CCCNC(=N)N)C(=O)N[C@@H](CC1CCCCC1)C(=O)N(CCC)CC(=O)N[C@@H](Cc1c[nH]cn1)C(=O)N[C@@H](CCCCN)C(=O)NCC(=O)N1CCCC[C@H]1C(=O)N[C@@H](CCCC)C(=O)NC(C)(C)C(=O)N[C@@H](Cc1ccc(Cl)cc1)C(=O)O)C(=O)O", "note": "[compound 643] ({Palmitoyl-γGlu-AEEA-AEEA}-[dQ]RP[NMeR][Cha][NPrGly]HKG[Pip][Nle][Aib][Phe(4-Cl)]-OH)", "values": [{"measurement": "EC50", "setting": "human APJ receptor; human APJ receptor", "value": 0.463, "unit": "nM"}, {"measurement": "EC50", "setting": "rat APJ receptor; [4]", "value": 3.79, "unit": "nM"}]}
